Measurements as given in patent publication US7670997B2, “Ophthalmic compositions comprising a branched, glycerol monoalkyl compound and a fatty acid monoester” (Bausch & Lomb Incorporated, priority 2006, dated 2010).
Where two headings read alike, the source gives them in different places.

Key:
[1] = for Foam Height Time = 0 min: after 10 seconds of vigorous shaking; for Foam Height Time = 30 min: after 30 minutes of standing
Method: In such a test, 50 mL of the solution being tested is placed in a 100 mL graduated cylinder (2.6 cm in diameter). The foam height is measured after 10 seconds of vigorous shaking of the cylinder containing the test solution. Foam height after 30 minutes of standing is also measured to evaluate foam draining propensity of the test solutions.

[2] = tested on: Gram-positive bacteria associated with perspiration odor; conditions: Sensiva product literature, Schulke & Mayr; cited from earlier work
[3] = octoxyglycerin 0.05 ppm in Table 1 formulation
[4] = octoxyglycerin 0.10 ppm in Table 1 formulation
[5] = octoxyglycerin 0.25 ppm in Table 1 formulation
[6] = octoxyglycerin 0.50 ppm in Table 1 formulation
[7] = octoxyglycerin 0.75 ppm in Table 1 formulation
[8] = octoxyglycerin 1.00 ppm in Table 1 formulation
[9] = octoxyglycerin 2.00 ppm in Table 1 formulation

## CCCCC(CC)COCC(O)CO (stereo not shown) [octoxyglycerin, 3-[(2-ethylhexyl)oxy]-1,2-propanediol]
[1]; amounts over 0.05 ppm, multi-purpose lens care products with over 3.0 wt % foaming surfactants (Pluronic F127, Tetronic 1107)
  control of foaming: effective control of foaming
[1]; [3]
  Foam Height Time = 0 min: 3.8 ± 0.2 cm
  Foam Height Time = 30 min: 3.0 ± 0.3 cm
[1]; [4]
  Foam Height Time = 0 min: 2.6 ± 0.4 cm
  Foam Height Time = 30 min: 2.0 ± 0.2 cm
[1]; [5]
  Foam Height Time = 0 min: 1.3 ± 0.2 cm
  Foam Height Time = 30 min: 0.8 ± 0.2 cm
[1]; [6]
  Foam Height Time = 0 min: 0.7 ± 0.2 cm
  Foam Height Time = 30 min: 0.4 ± 0.1 cm
[1]; [7]
  Foam Height Time = 0 min: 0.3 ± 0.1 cm
  Foam Height Time = 30 min: 0.2 ± 0.1 cm
[1]; [8]
  Foam Height Time = 0 min: 0.1 ± 0.0 cm
  Foam Height Time = 30 min: 0.0 ± 0.0 cm
[1]; [9]
  Foam Height Time = 0 min: 0.1 ± 0.0 cm
  Foam Height Time = 30 min: 0.0 ± 0.0 cm
[2]
  antimicrobial activity against Gram-positive bacteria: exhibit antimicrobial activity
